# Measured values from patent US10995129B2 (Case Western Reserve University, priority 2011, dated 2021).
# Assays:
# [1] = system: Normal male Sprague-Dawley rats; assay: Hyperinsulinemic-euglycemic clamp; type: in vivo, rat
# Procedure: A primed infusion of glucose was administered followed by a continuous dosage. […] Glucose appearance and disposal was determined by calculating the difference between glucose infused and glucose present in the plasma as determined by glucometer. Plasma levels of plasma nonesterified fatty acids (NEFA) are determined using a colorimeteric assay such as the assay kit available from Fujifilm Wako Diagnostics (Mountain View, Calif.). Phosphorylation relative to basal level was measured using Western blot analysis of samples harvested from liver, gastrocnemius and epididymal white adipose tissue (eWAT), and immunoblotted using anti-phosphotyrosine antibody (Cell Signaling Technologies, Inc., Danvers, Mass., Phospho-IGF-I Receptor β ([MUT]) Rabbit monoclonal antibody #3918). Similarly Akt phosphorylation was similarly tested using Cell Signaling Technology, Inc. (Danvers, Mass.) antibody No. 9271 as primary antibody and horse radish peroxidase (HRP)-linked Anti-rabbit IgG antibody No. 7074 (Cell Signaling Technology, Inc., Danvers, Mass.).
# [2] = biological target: A isoform of the insulin receptor (IR-A) (Homo sapiens, UniProt P06213); assay: Affinity of the GluA8, TrpA13, ChaB24 analogue for receptor isoform A; type: binding
# [3] = biological target: B isoform of the insulin receptor (IR-B) (Homo sapiens, UniProt P06213); assay: Affinity of the GluA8, TrpA13, ChaB24 analogue for receptor isoform B; type: binding
substance,measurement,setting,value
"CHA: insulin analogue with Glu A8, Trp A13 and cyclohexanylalanine B24; SEQ ID NOS: 50 and 51",increase of insulin stimulated whole body glucose disposal (Rd),[1]; FIG. 16B,to a similar degree
same,insulin stimulated whole body glucose disposal (Rd),[1]; FIG. 16B legend,21.1 ± 1.4 mg/kg/min
same,"insulin receptor tyrosine phosphorylation (IRKpY) in liver, vs KP","[1]; Western blot, FIG. 16D",decrease
same,"IRKpY activation in gastrocnemius muscle, vs KP","[1]; Western blot, FIG. 16E",to a similar degree
same,"IRKpY activation in epididymal white adipose tissue (eWAT), vs KP","[1]; Western blot, FIG. 16F",to a similar degree
same,GINF (glucose infusion),[1]; during clamp,21.1 ± 1.4 mg/kg/min
same,clamped plasma glucose concentration,"[1]; during clamp, KP 24, CHA 40 pmol/kg-min",111.1 ± 5.1 mg/dL
same,suppression of endogenous glucose production (EGP),"[1]; hyperinsulinemic conditions, p=0.001",28.2±16.7%
same,2-deoxyglucose uptake in eWAT,"[1]; rat, in vivo",0.72±0.1 mg glucose·kg tissue^−1·min^−1
same,2-deoxyglucose uptake in gastrocnemius,"[1]; rat, in vivo",18.6±2.5 mg glucose·kg tissue^−1·min^−1
same,lower affinity for the A isoform of the insulin receptor,[2],five
same,lower affinity for the B isoform of the insulin receptor,[3],13 fold
